Laboratory results published in patent US4017534A, “16-Fluoro-11-deoxy-13-dihydro-prostaglandin” (American Cyanamid Company, priority 1975, dated 1977).
Like-named read-outs stand apart in the source and are kept apart here.

Tests used:
[1] = system: basal gastric acid secretion; assay: Inhibition of total acid output in the acute gastric fistula rat; format: in vivo, Female Sprague-Dawley rats; conditions: for ED50: Rattus norvegicus
Experimental: The compounds of this invention are also useful as inhibitors of gastric acid secretion and peptic ulcer formation and may be used for the treatment of gastric hyperacidity, gastric erosion, and peptic ulcer. Inhibition of basal gastric acid secretion can be determined by the following procedure.
Female Sprague-Dawley rats weighting 140-160 grams are fasted in individual cages for 18-24 hours. The rats are then lightly anesthetized with ether and their front teeth extracted to avoid destruction of the plastic cannula. A midline incision is then made and the stomach and duodenum exposed. A flanged polyvinyl tube is inserted into the fundic portion of the stomach and secured with a purse string suture line using 4-O Mersilene. The rat is then dosed by injection of the compound into the duodenum (1.0 ml. per 100 gram body weight). After dosing, the abdominal wall and skin are closed using metal wound clips. The rate is replaced in a cage containing a longitudinal slit to allow the polyvinyl tube to hang freely. An 8 ml. plastic collecting tube is attached to the flanged cannula and hangs freely below the cage. The first 30 minute sample is discarded designating this time as zero. The collecting tube is attached again and samples removed at the end of 60 and 120 minutes. These samples are referred to as "A" and "B" in the table. The hourly samples are then transferred to a 15 ml. centrifuge and centrifuged for 5-10 minutes. Total and sediment volume are then recorded with the supernatent volume being used as volume of secretion. A 1 ml. or less aliquot is then removed and placed in a 50 ml. beaker containing 10 ml. of distilled water. This sample is then titrated using 0.01N NaOH to pH 7.0 using a Beckman zeromatic pH meter. Volume, titratable acidity (meg.L) and total acid output (μeg/hour) are recorded. Percent inhibition is determined by comparison with the appropriate control. Groups of three rats were used for preliminary testing, and groups of six rats were used for dose-response evaluations. All compounds are administered in a vehicle consisting of 0.5% methocel, 0.4% tween 80, and saline at a constant volume of 1 ml./100 gram rat. Samples are dispersed by sonification. Percent inhibition is calculated on basis of concurrent vehicle control.
In Table B which follows is given the effect on total acid output after 120 minutes of a 10 mg./kg. dose of representative ketals of this invention. For comparison the result obtained with the corresponding 9-oxo derivative, l 9-oxo-15(S)-hydroxyprostanoic acid is included.
Dose response evaluation in the acute gastric fistual rat assay further illustrates the pronounced advantage of the novel ketals of this invention as gastric acid secretion inhibitors relative to the corresponding 9-oxo derivative.

[2] = system: bronchospasms elicited by intravenous injections of histamine; assay: Bronchodilator activity (Konzett assay, intravenous) against histamine; format: in vivo, guinea pigs; conditions: Cavia porcellus, guinea pig, spasmogen histamine, read-out: Bronchodilator Activity (Konzett Assays) ED50, histamine
Experimental: (§1) The compounds of this invention are useful as bronchodilators for the treatment of asthma and chronic bronchitis. Bronchodilator activity is determined in guinea pigs against bronchospasms elicited by intravenous injections of 5-hydroxytryptamine, histamine or acetylcholine by the Konzett procedure. [See J. Lulling, P. Lievens, F. El Sayed and J. Prignot, Arzneimittel-Forschung, 18, 995 (1968).]
(§2) In Table A which follows bronchodilator activity for representative compounds of this invention against one or more of three spasmogenic agents is expressed as an ED50 determined from the results obtained with three logarithmic cumulative intravenous doses.

cough = assay: Cough induction by aerosol in human; format: in vivo
Experimental: (§3) The novel ketals of this invention also show bronchodilator activity when administered by aerosol to dogs wherein bronchoconstriction was induced by administration of pilocarpine. […] This is very important since coughing is one of the damaging side effects reported in the literature when prostaglandin aerosols are administered to human subjects. [See Y. Kawakami et al., European Journal Clinical Pharmacology, 6, 127 (1973); M. F. Cuthbert, Brit. Med. Journ. 723 (Dec. 20, 1969); H. Herxheimer and I. Roetscher, European Journal Clinical Pharmacology, 3, 123 (1971).]

[3] = system: bronchoconstriction induced by administration of pilocarpine; assay: Bronchodilator activity by aerosol in dogs; format: in vivo; conditions: for bronchodilator activity by aerosol: aerosol concentration 0.032%
Experimental: as §3

[4] = system: bronchospasms elicited by intravenous injections of 5-hydroxytryptamine; assay: Bronchodilator activity (Konzett assay, intravenous) against 5-hydroxytryptamine; format: in vivo, guinea pigs; conditions: Cavia porcellus, guinea pig, spasmogen 5-hydroxytryptamine, read-out: Bronchodilator Activity (Konzett Assays) ED50, 5-hydroxytryptamine
Experimental: as §1, §2

[5] = system: bronchospasms elicited by intravenous injections of acetylcholine; assay: Bronchodilator activity (Konzett assay, intravenous) against acetylcholine; format: in vivo, guinea pigs; conditions: Cavia porcellus, guinea pig, spasmogen acetylcholine, read-out: Bronchodilator Activity (Konzett Assays) ED50, acetylcholine
Experimental: as §1, §2

[6] = system: bronchospasms elicited by histamine; assay: Bronchodilator activity (intraduodenal route) against histamine; format: in vivo, guinea pigs; parameters: key: 0: no activity; +: minimal activity; ++++: maximum activity; conditions: intraduodenal dose 10 mg./kg.
Experimental: as §1
(§4) In Table A' which follows bronchodilator activity for representative compounds of this invention against one or more of three spasmogenic agents is reported. In this assay candidate compounds are suspended in 10% gum arabic solution and the suspension is administered by the intraduodenal route. The activity of the compound at any one dose is then investigated throughout the following hour (see above-cited reference, J. Lulling et al.). Potency is then reported as O, +, ++, +++, or ++++, wherein 0 represents no activity, + minimal activity and ++++ maximum activity.

[7] = system: bronchospasms elicited by 5-hydroxytryptamine; assay: Bronchodilator activity (intraduodenal route) against 5-hydroxytryptamine; format: in vivo, guinea pigs; parameters: key: 0: no activity; +: minimal activity; ++++: maximum activity
Experimental: as §1, §4

gastric acid secretion = assay: Gastric acid secretion inhibition, Shay-rat procedure; format: in vivo, rats (male, CFE strain); conditions: intraduodenal dose 100 mg./kg. of body weight
Experimental: Gastric acid secretion inhibition can also be observed in an assay wherein acid secretion is stimulated as in the well-known "Shay-rat" procedure, which is carried out in the following manner.
The rats (male, CFE strain) were starved for 48 hours (water was given ad libitum) to permit evacuation of stomach contents. On the morning of the experiment, under ether anesthesia, the abdominal region was shaved and a midline incision (1-11/2 inch) was made with a scapel. With the help of a closed curved hemostat the duodenum was picked up. […]
The abdominal cavity was exposed by cutting with scissors and the esophagus close to the stomach was clamped off with a hemostat, the stomach was removed by cutting above the hemostat (the esophagus was cut) and between the two sutures. […] The supernatant was collected, volume measured and recorded, 2 drops of a phenolphthalein indicator (1% in 95% ethanol) were added and the solution was tritrated with 0.02N NaOH (or with 0.04N NaOH when large volumes of stomach contents were encountered) to pH 8.4 (because of usual coloring of the stomach contents, phenolphthalein was only used to permit visual indication that the end point was near) and the amount of acid present was calculated. […]

[8] = 2 h, 10 mg./kg., intraduodenal route, rat, read-out: %-Inhibition of Total Acid Output After 120 Minutes
[9] = Table C, intraduodenal route, 2 hr. collection, read-out: ED50, 2 hr. collection (B)
[10] = Table C, intraduodenal route, 1 hr. collection, read-out: ED50, 1 hr. collection (A)

| Compound | inhibition in vivo at 10 mg/kg [1, 8] | ED50 [1, 9] | ED50 [1, 10] | Bronchodilator potency, Spasmogenic Agent Histamine [6] | also measured |
| --- | --- | --- | --- | --- | --- |
| CCCCC[C@@H](CC[C@H]1CCC2(OCCO2)[C@@H]1CCCCCCC(=O)OC)OC(C)=O [l methyl 9,9-ethylenedioxy-15(S)-acetoxy-prostanoate] | 100% | 3 mg/kg | – | – | ED50 ([1]; 2 h, Table B, intraduodenal route, after 120 minutes, read-out: ED50 (inhibition of total acid output)): 3 mg/kg |
| CCCCC[C@H](O)CC[C@H]1CCC2(OCCO2)[C@@H]1CCCCCCC(=O)O [l-9,9-(ethylenedioxy)-15(S)-hydroxy-prostanoic acid] | 63% | 2.3 mg/kg | 1 mg/kg | – | ED50 [2]: 0.000376 mg/kg; induction of cough by aerosol (cough): does not induce cough; bronchodilator activity by aerosol [3]: fully-present; potency of the ketal relative to the ketone ([3]; aerosol, versus l 9-oxo-15(S)-hydroxyprostanoic acid): at least 10 times; ED50 [4]: 0.00253 mg/kg; ED50 [5]: 0.0274 mg/kg |
| CCCCC[C@H](O)CC[C@H]1CCC2(OCC(C)(C)CO2)[C@@H]1CCCCCCC(=O)O [9,9-(2,2-dimethylpropylenedioxy)-15(S)-hydroxy-prostanoic acid] | 32% | – | – | + | Bronchodilator potency, Spasmogenic Agent 5-Hydroxytryptamine ([7]; intraduodenal dose 10 mg./kg.): + |
| CCCCC[C@H](O)CC[C@H]1CCC2(OC(C)C(C)O2)[C@@H]1CCCCCCC(=O)O (stereo partly drawn) [l-9,9-(1,2-dimethylethylenedioxy)-15(S)-hydroxy-prostanoic acid] | 57% | 8 mg/kg | < 8 mg/kg | + | – |
| CCCCC[C@@H](CC[C@H]1CCC2(OC(C)C(C)O2)[C@@H]1CCCCCCC(=O)OC)OC(C)=O (stereo partly drawn) [l methyl 9,9-(1,2-dimethylethylenedioxy)-15(S)-acetoxyprostanoate] | 74% | 7 mg/kg | 7 mg/kg | – | – |
| CCCCC[C@H](O)CC[C@H]1CCC2(OCCS2)[C@@H]1CCCCCCC(=O)O (stereo partly drawn) [l-9,9-(ethyleneoxythia)-15(S)-hydroxy-prostanoic acid] | 39% | – | – | + | – |
| CCCCCC(O)CCC1CCC2(OCCO2)C1CCCCCCC(=O)O (racemic) [9,9-(ethylenedioxy)-15-hydroxy-prostanoic acid] | – | – | – | – | Percent Inhibition (gastric acid secretion, Shay rat) (gastric acid secretion): 56% |
| CCCCC[C@@H](CC[C@H]1CCC2(SCCS2)[C@@H]1CCCCCCC(=O)OC)OC(C)=O [l methyl 9,9-ethylenedithia-15(S)-acetoxy-prostanoate] | 32% | – | – | – | – |
| CCCCC[C@H](O)CC[C@H]1CCC(=O)[C@@H]1CCCCCCC(=O)O [l 9-oxo-15(S)-hydroxyprostanoic acid, 1-15(S)-hydroxy-9-oxo-prostanoic acid, reference compound] | – | > 25 mg/kg | 18 mg/kg | – | induction of cough by aerosol (cough): ketone aerosol does; bronchodilator activity by aerosol [3]: very weak; inhibition in vivo at 12.5 mg/kg ([1]; 2 h, 12.5 mg./kg. dose, intraduodenal route, rat, read-out: %-Inhibition of Total Acid Output After 120 Minutes): 27%; potency relative to the ketals ([1]; total acid output, Table B): significantly less potent than the ketals |
| l methyl 9,9-(2,2-dimethyl-1,3-propylenedioxy)-15(S)-acetoxy-prostenoate | – | – | – | – | %-Inhibition of Total Acid Output After 120 Minutes ([1]; 10 mg./kg., intraduodenal route, rat): 27% |
| CCCCC[C@H](O)CC[C@H]1CCC2(OCC(C)O2)[C@@H]1CCCCCCC(=O)O (stereo partly drawn) [l-15(S)-hydroxy-9,9-(1-methylethylenedioxy)-prostanoic acid] | 61% | – | – | – | ED50 [4]: 0.000104 mg/kg; ED50 [5]: 0.000644 mg/kg |
| CCCCC[C@@H](CC[C@H]1CCC2(OCC(CCl)O2)[C@@H]1CCCCCCC(=O)OC)OC(C)=O (stereo partly drawn) [l methyl-9,9-(1-chloromethylethylenedioxy)-15(S)-acetoxy-prostanoate] | 26% | – | – | + | – |
| CCCCC[C@H](O)CC[C@H]1CCC2(OCC(CCl)O2)[C@@H]1CCCCCCC(=O)O (stereo partly drawn) [l-9,9-(1-chloromethylethylenedioxy)-15(S)-hydroxy-prostanoic acid] | 99% | 6 mg/kg | 6 mg/kg | – | Bronchodilator potency, Spasmogenic Agent 5-Hydroxytryptamine ([7]; intraduodenal dose 3.2 mg./kg.): ++++ |
| CCCCC[C@@H](CC[C@H]1CCC2(OCCCO2)[C@@H]1CCCCCCC(=O)OC)OC(C)=O [l methyl 9,9-(1,3-propylenedioxy)-15(S)-acetoxy-prostanoate] | 60% | 6 mg/kg | 6 mg/kg | + | – |
| CCCCC[C@@H](CC[C@H]1CCC2(OCC(C)O2)[C@@H]1CCCCCCC(=O)OC)OC(C)=O (stereo partly drawn) [l methyl 9,9-(1-methylethylenedioxy)-15(S)-acetoxyprostanoate] | – | – | – | – | Bronchodilator potency, Spasmogenic Agent 5-Hydroxytryptamine ([7]; intraduodenal dose 10 mg./kg.): + |
